Reference: BigSolDB 2.1

CCOc1ccc(C=O)cc1O
solubility (mole fraction)
Conditions | 283.15 K | 288.15 K | 293.15 K | 298.15 K | 303.15 K | 308.15 K | 313.15 K | 318.15 K | 323.15 K
in THF | 0.0523 | 0.0624 | 0.071 | 0.0842 | 0.094 | 0.108 | 0.123 | 0.138 | 0.156
in acetone | 0.0425 | 0.0467 | 0.0515 | 0.057 | 0.0652 | 0.0718 | 0.0819 | 0.092 | 0.114
in acetonitrile | 0.0105 | 0.0133 | 0.015 | 0.0191 | 0.0228 | 0.0285 | 0.0353 | 0.0406 | 0.0551
in ethanol | 0.0066 | 0.0078 | 0.0101 | 0.012 | 0.0141 | 0.0179 | 0.0224 | 0.0276 | 0.0345
in ethyl acetate | 0.0166 | 0.0194 | 0.0212 | 0.0259 | 0.0288 | 0.0361 | 0.0416 | 0.0511 | 0.0606
in ethyl formate | 0.0135 | 0.0172 | 0.0196 | 0.0236 | 0.0278 | 0.0341 | 0.0415 | 0.0488 | 0.0605
in isopropanol | 0.0035 | 0.005 | 0.0063 | 0.0082 | 0.01 | 0.0129 | 0.0168 | 0.0216 | 0.0277
in isopropyl acetate | 0.013 | 0.0156 | 0.0187 | 0.0202 | 0.0227 | 0.0274 | 0.0325 | 0.0387 | 0.0457
in methanol | 0.0072 | 0.0091 | 0.0119 | 0.0159 | 0.0206 | 0.0268 | 0.0362 | 0.0482 | 0.0635
in methyl acetate | 0.0166 | 0.0205 | 0.0263 | 0.0301 | 0.0331 | 0.0409 | 0.048 | 0.0557 | 0.0678
in n-propanol | 0.0048 | 0.0065 | 0.0077 | 0.0098 | 0.0118 | 0.0149 | 0.0194 | 0.0246 | 0.0312
in toluene | 0.0032 | 0.0037 | 0.0042 | 0.0049 | 0.0057 | 0.0068 | 0.0077 | 0.0092 | 0.011
